Test results taken from patent US8901301B2, “Pyrrolo[2,3-]pyridine kinase inhibitors” (Plexxikon Inc., priority 2009, dated 2014).

How the values were obtained:
[1] = biological target: T1, CYP2D6 (Homo sapiens, UniProt P10635); assay: CYP inhibition (fluorescent substrate), CYP2D6; assay type: in vitro ADME; details: substrate AMMC; read-out: Cyp IC50 (μM) 2D6
T1 construct: purchased BD Biosciences
Method: CYP (Cytochrome P450) enzymes are the major drug metabolizing enzymes present in the liver. The inhibition of CYP enzyme activity (IC50) for each of CYP1A2, CYP2C19, CYP2C9, CYP2D6, CYP3A4(BFC) and CYP3A4(BQ) is determined for compounds, where inhibition of metabolism of a known substrate leads to a decrease in the fluorescence of the metabolized product. The fluorescence of the product is monitored as a function of compound concentration. Compounds are dissolved in dimethyl sulfoxide to a concentration of 100 mM. These are diluted 1 μL into 82 μL of acetonitrile. An 11 μL aliquot of this solution is then added to 204 μL of cofactor mix (1.3% NADPH Regeneration system Solution A, 1.04% NADPH Regeneration system Solution B from BD Biosciences, 5% acetonitrile and 0.05% dimethyl sulfoxide). These are then serially diluted 1:1 (160 μL to 160 μL co-factor mix) for a total of 10 points. A 10 μL aliquot of this final mixture is dispensed into 384 well assay plates and incubated for 10 minutes at 37° C. […] Assay plates are incubated at 37° C. (CYP1A2-15 min; CYP2C9-45 min; CYP2C19, 2D6 and 3A4-30 min) and read in a Tecan Safire 2 plate reader (CYP1A2, 2C19 and 3A4 409 ex/460 em; CYP2C9 and 2D6 409 ex/530 em). The signal versus compound concentration is used to determine the IC50. The enzymes and substrates for this assay are obtained from BD Biosciences.

[2] = biological target: T2, Tec (Homo sapiens, UniProt P42680); assay: Biochemical inhibitory activity, other protein kinases: Tec; details: for Kinase having IC50 of <1 μM: listing of the kinase means IC50 <1 μM; for Kinase having IC50 of >1 μM: listing of the kinase means IC50 >1 μM
T2 sequence (P42680 1-631): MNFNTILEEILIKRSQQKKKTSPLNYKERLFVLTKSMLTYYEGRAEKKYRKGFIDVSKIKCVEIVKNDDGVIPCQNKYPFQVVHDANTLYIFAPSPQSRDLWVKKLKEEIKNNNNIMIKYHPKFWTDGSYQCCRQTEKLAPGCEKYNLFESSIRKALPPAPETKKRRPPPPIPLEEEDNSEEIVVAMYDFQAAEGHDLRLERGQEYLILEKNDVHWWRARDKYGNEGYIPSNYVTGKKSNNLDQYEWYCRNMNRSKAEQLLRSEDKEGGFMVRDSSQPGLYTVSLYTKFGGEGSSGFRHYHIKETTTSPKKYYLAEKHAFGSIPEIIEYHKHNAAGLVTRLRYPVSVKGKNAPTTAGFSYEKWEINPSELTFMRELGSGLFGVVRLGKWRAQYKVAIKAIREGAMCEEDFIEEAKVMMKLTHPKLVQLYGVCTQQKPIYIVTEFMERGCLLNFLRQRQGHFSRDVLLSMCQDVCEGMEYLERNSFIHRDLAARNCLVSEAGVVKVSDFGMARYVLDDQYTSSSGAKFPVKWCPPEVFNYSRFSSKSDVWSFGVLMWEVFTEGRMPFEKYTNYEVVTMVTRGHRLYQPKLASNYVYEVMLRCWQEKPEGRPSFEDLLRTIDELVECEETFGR

[3] = biological target: Hgk (Homo sapiens, UniProt O95819); assay: Biochemical inhibitory activity, other protein kinases: Hgk; details: for Kinase having IC50 of >1 μM: listing of the kinase means IC50 >1 μM; for Kinase having IC50 of <1 μM: listing of the kinase means IC50 <1 μM
Chain of Hgk (O95819 whole entry, species assumed): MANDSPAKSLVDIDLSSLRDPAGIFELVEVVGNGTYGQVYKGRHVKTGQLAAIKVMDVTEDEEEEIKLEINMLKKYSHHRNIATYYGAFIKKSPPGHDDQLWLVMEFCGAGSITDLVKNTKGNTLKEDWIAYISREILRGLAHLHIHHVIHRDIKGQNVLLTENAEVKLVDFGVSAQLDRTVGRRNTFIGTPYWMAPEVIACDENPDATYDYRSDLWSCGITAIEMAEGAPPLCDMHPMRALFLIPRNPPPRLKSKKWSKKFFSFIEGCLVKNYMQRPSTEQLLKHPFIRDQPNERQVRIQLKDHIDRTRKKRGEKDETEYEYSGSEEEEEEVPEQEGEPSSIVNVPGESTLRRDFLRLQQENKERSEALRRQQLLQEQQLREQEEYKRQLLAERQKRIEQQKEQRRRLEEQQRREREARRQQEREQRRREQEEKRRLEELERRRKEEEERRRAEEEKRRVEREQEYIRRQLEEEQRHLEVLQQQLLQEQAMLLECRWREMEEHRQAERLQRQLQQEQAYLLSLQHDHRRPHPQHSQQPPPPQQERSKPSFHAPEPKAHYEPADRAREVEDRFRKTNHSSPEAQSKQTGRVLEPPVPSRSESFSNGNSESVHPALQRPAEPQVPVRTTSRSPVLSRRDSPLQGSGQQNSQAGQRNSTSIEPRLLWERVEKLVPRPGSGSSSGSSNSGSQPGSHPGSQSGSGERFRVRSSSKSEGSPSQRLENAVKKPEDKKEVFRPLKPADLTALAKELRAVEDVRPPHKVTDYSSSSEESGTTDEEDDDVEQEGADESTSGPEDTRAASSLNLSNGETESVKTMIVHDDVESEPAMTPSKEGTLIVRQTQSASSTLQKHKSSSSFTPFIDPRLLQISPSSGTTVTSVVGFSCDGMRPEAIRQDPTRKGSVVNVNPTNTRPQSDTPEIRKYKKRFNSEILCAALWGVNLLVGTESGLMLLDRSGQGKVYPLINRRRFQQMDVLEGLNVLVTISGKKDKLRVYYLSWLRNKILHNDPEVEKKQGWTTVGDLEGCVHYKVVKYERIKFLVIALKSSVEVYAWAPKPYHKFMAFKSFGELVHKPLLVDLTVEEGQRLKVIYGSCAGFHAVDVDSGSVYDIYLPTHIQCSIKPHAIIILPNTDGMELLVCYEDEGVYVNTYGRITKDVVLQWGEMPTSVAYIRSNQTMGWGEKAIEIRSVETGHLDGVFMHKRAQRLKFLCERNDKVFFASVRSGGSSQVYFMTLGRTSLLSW

[4] = biological target: Btk (Homo sapiens, UniProt Q06187); assay: Biochemical inhibitory activity, other protein kinases: Btk; details: listing of the kinase means IC50 >1 μM
Chain of Btk (Q06187 whole entry, species assumed): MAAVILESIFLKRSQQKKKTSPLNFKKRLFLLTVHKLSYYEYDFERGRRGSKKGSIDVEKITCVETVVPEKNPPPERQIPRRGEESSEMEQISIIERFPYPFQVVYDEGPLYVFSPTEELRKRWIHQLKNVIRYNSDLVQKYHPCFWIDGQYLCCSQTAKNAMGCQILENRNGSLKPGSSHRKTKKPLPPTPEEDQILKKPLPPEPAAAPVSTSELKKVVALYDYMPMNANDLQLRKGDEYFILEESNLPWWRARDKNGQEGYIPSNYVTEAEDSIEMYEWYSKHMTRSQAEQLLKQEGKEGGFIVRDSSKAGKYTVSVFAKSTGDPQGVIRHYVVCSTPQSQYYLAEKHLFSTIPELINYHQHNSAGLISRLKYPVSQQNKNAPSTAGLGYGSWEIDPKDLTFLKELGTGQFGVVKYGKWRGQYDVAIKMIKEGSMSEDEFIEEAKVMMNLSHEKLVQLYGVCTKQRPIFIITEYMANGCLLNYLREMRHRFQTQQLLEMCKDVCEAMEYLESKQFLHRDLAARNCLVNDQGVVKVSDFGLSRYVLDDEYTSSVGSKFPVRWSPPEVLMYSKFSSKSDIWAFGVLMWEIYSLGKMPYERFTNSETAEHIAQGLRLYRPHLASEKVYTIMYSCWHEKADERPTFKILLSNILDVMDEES

[5] = biological target: T3, B-Raf (Homo sapiens, UniProt P15056); assay: Raf biochemical kinase assay (biotin-MEK1 phosphorylation), B-Raf; details: 100 μM ATP
T3 construct: purchased Upstate Biotechnology
T3 sequence (P15056 whole entry): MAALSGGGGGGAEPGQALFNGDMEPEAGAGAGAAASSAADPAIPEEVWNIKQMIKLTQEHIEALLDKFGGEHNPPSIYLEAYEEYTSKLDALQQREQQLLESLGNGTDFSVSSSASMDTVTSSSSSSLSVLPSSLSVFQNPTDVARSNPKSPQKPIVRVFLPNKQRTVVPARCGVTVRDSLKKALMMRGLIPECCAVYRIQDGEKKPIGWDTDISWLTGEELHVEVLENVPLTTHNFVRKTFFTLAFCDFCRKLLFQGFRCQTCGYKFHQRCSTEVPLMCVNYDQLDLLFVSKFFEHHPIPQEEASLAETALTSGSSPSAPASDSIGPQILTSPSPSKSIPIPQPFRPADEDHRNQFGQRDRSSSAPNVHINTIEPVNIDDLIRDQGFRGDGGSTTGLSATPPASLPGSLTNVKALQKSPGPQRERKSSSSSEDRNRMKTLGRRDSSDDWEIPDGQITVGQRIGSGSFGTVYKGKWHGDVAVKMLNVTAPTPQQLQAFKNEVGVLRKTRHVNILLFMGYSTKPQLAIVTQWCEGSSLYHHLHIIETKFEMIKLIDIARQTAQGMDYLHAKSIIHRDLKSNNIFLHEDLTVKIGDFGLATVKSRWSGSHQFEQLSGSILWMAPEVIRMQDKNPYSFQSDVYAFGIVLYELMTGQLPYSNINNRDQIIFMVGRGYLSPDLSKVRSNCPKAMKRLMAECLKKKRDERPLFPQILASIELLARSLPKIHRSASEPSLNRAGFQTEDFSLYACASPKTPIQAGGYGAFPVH
Method: Assays for biochemical and cell based activity are known in the art, for example, as described in PCT publication WO 2007/002433, the disclosure of which is hereby incorporated by reference as it relates to such assays. For example, the biochemical activity IC50 values are determined with respect to inhibition of A-Raf kinase activity, B-Raf kinase activity, c-Raf-1 kinase activity, or B-Raf V600E kinase activity, where inhibition of phosphorylation of a peptide substrate is measured as a function of compound concentration. Compounds to be tested are diluted in dimethyl sulfoxide to a concentration of 0.1 mM. These are serially diluted 15 μL into 30 μL of dimethyl sulfoxide seven times in 96 well plates for a total of 8 dilution points, and for each dilution point 1 μL is added to a well of an assay plate. Plates are prepared such that each well in a 384 well plate contains 1 μL of compound in 10 μL volume with 0.1 ng Raf enzyme (i.e. any of A-Raf, B-Raf, c-Raf-1 or B-Raf V600E, Upstate Biotechnology or prepared by methods known to one of skill in the art), 50 mM HEPES, pH 7.0, 50 mM NaCl, 2 mM MgCl2, 1 mM MnCl2, 0.01% Tween-20, 1 mM DTT, and 100 nM biotin-MEK1 as substrate. The reaction is started with addition of 10 μL of 200 μM ATP (i.e. final 100 μM ATP). After incubation of the kinase reaction for 45 minutes at room temperature, 5 μL/well of Stop Solution is added (25 mM Hepes pH 7.5, 100 mM EDTA, 0.01% BSA with donor beads (Streptavidin coated beads, Perkin Elmer), acceptor beads (Protein A coated, Perkin Elmer), and anti phosphor MEK1/2 antibody (CellSignal), each at final concentration 10 μg/mL). The plates are incubated for 3 hours at room temperature and read on Envision reader (Perkin Elmer). Phosphorylation of Mek1 results in binding of the anti-phosphor-MEK1/2 antibody and association of the donor and acceptor beads such that signal correlates with kinase activity. The signal vs. compound concentration is used to determine the IC50.

T1 sequence (P10635 whole entry): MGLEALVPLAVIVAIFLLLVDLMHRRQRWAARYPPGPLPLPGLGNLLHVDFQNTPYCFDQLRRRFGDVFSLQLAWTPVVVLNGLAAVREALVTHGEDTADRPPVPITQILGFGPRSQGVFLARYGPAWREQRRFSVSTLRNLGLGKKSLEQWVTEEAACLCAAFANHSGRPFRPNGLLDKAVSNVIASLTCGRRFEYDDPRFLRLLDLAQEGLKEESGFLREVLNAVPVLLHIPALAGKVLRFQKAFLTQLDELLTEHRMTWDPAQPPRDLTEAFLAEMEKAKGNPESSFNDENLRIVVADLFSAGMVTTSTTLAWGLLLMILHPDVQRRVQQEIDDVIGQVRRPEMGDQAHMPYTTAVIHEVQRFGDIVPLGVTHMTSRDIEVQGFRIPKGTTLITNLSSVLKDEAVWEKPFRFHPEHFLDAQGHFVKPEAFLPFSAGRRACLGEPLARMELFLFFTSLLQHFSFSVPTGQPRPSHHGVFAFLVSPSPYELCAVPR

IC50 [1] [µM] | Kinase having IC50 of <1 μM [2] | Kinase having IC50 of >1 μM [3] | Kinase having IC50 of >1 μM [4] | IC50 [5] [µM] | Kinase having IC50 of >1 μM [2] | Kinase having IC50 of <1 μM [3] | Compound
> 10 | – | – | Btk | < 0.01 | Tec | Hgk | N#Cc1cnc2[nH]cc(C(=O)c3c(F)ccc(NS(=O)(=O)c4cccc(F)c4)c3F)c2c1 [Compound P-0005, N-[3-(5-cyano-1H-pyrrolo[2,3-b]pyridine-3-carbonyl)-2,4-difluoro-phenyl]-3-fluoro-benzenesulfonamide]
> 10 | Tec | Hgk | Btk | < 0.1 | – | – | N#Cc1cnc2[nH]cc(C(=O)c3c(F)ccc(NS(=O)(=O)N4CCCC4)c3F)c2c1 [Compound P-0006, pyrrolidine-1-sulfonic acid [3-(5-cyano-1H-pyrrolo[2,3-b]pyridine-3-carbonyl)-2,4-difluoro-phenyl]-amide]
> 10 | – | Hgk | Btk | < 1 | Tec | – | CN(C)S(=O)(=O)Nc1ccc(F)c(C(=O)c2c[nH]c3ncc(C#N)cc23)c1F [Compound P-0007, N,N-dimethylamino-sulfonic acid [3-(5-cyano-1H-pyrrolo[2,3-b]pyridine-3-carbonyl)-2,4-difluoro-phenyl]-amide]

The remaining lines, values behind:

Compound | IC50 [1] [µM] | Kinase having IC50 of <1 μM [2] | Kinase having IC50 of >1 μM [3] | Kinase having IC50 of >1 μM [4] | IC50 [5] [µM] | Kinase having IC50 of >1 μM [2] | Kinase having IC50 of <1 μM [3]
CCCS(=O)(=O)Nc1ccc(F)c(C(=O)c2c[nH]c3ncc(-c4cnc(OC)nc4)cc23)c1F [Compound P-0001, propane-1-sulfonic acid {2,4-difluoro-3-[5-(2-methoxy-pyrimidin-5-yl)-1H-pyrrolo[2,3-b]pyridine-3-carbonyl]-phenyl}-amide] | > 10 | Tec | Hgk | Btk | < 0.1 | – | –
CCCS(=O)(=O)Nc1ccc(F)c(C(=O)c2c[nH]c3ncc(C#N)cc23)c1F [Compound P-0002, propane-1-sulfonic acid [3-(5-cyano-1H-pyrrolo[2,3-b]pyridine-3-carbonyl)-2,4-difluoro-phenyl]-amide] | > 10 | – | Hgk | Btk | < 0.1 | Tec | –
CCCS(=O)(=O)Nc1cccc(C(=O)c2c[nH]c3ncc(C#N)cc23)c1F [Compound P-0003, propane-1-sulfonic acid [3-(5-cyano-1H-pyrrolo[2,3-b]pyridine-3-carbonyl)-2-fluoro-phenyl]-amide] | > 10 | – | Hgk | Btk | < 1 | – | –
N#Cc1cnc2[nH]cc(C(=O)c3c(F)ccc(NS(=O)(=O)c4cc(F)ccc4F)c3F)c2c1 [Compound P-0004, N-[3-(5-cyano-1H-pyrrolo[2,3-b]pyridine-3-carbonyl)-2,4-difluoro-phenyl]-2,5-difluoro-benzenesulfonamide] | > 10 | – | – | Btk | < 0.1 | Tec | Hgk
